Assay results: US10442815B2, “Tricyclic heterocyclic compounds as phosphoinositide 3-kinase inhibitors” (Karus Therapeutics Limited, priority 2015, dated 2019)

Columns and labels:
[1] = Plasma PK of comparative compound without sulfur moiety in male CD1 mice; assay type: in vivo, mouse; details: Mesylate Salt
Procedure: Formulation: 10% DMSO, 90% Saline
Dosing: 10 mg/kg P.O. and 5 mg/kg I.V.

[2] = molecular target: T1, PI3K p110α (Homo sapiens, UniProt P42336); experiment: IC50 determination, HTRF biochemical assay (Reaction Biology Corp.)
T1 construct: assay run at Proqinase GmbH
Description: (§1) Biochemical activity against class I PI3K isoforms was confirmed by either Ki determination using the non-radiometric ADP-Glo™ assay (Promega, Madison, Wis., USA) at Proqinase GmbH, or IC50 determination using the HTRF biochemical assay at Reaction Biology Corp.

[3] = molecular target: T2, PI3K p110β (Homo sapiens, UniProt P42338); experiment: as above
T2 construct: assay run at Proqinase GmbH
Description: as §1

[4] = molecular target: T3, PI3K p110δ (Homo sapiens, UniProt O00329); experiment: as above
T3 construct: assay run at Proqinase GmbH
Description: as §1

[5] = molecular target: T4, PI3K p110γ (Homo sapiens, UniProt P48736); experiment: as above
T4 construct: assay run at Proqinase GmbH
Description: as §1

[6] = Plasma PK of Example B, oral bioavailability and clearance in male Balb/c mice; assay type: in vivo, mouse; details: Mesylate Salt
Procedure: Animals in Group 2 were administered with oral solution formulation of Example B in 5% NMP, 5% Solutol HS and 90% of 20% HPβCD at a dose of 10 mg/kg. Dosing: 10 mg/kg P.O. and 3 mg/kg I.V.

[7] = molecular target: T1, PI3K p110α; experiment: Ki determination, non-radiometric ADP-Glo assay (Proqinase GmbH); assay type: biochemical
Description: as §1

[8] = molecular target: T2, PI3K p110β; experiment: as above; assay type: biochemical
Description: as §1

[9] = molecular target: T3, PI3K p110δ; experiment: as above; assay type: biochemical
Description: as §1

[10] = molecular target: T4, PI3K p110γ; experiment: as above; assay type: biochemical
Description: as §1

[11] = Plasma PK of compound K of WO 2011/021038 in male Balb/c mice; assay type: in vivo, mouse; details: for F: PO 10 mg/kg vs IV 3 mg/kg, male Balb/c mouse
Procedure: Animals in Group 1 were administered intravenously with compound K solution formulation in 5% NMP, 5% solutol HS-15 and 90% normal saline via tail vein at a dose of 3 mg/kg.
Animals in Group 2 were administered with oral solution formulation of compound K in 5% NMP, 5% solutol HS-15 and 90% normal saline at a dose of 10 mg/kg;
Dosing: 10 mg/kg P.O. and 3 mg/kg I.V.

[12] = IV, 5 mg/kg, male CD1 mouse plasma
[13] = IV, 3 mg/kg, male Balb/c mouse plasma
[14] = IV, 3 mg/kg, male Balb/c mouse plasma, read-out: Vss
[15] = PO, 10 mg/kg, male Balb/c mouse plasma

T1 sequence (P42336 whole entry): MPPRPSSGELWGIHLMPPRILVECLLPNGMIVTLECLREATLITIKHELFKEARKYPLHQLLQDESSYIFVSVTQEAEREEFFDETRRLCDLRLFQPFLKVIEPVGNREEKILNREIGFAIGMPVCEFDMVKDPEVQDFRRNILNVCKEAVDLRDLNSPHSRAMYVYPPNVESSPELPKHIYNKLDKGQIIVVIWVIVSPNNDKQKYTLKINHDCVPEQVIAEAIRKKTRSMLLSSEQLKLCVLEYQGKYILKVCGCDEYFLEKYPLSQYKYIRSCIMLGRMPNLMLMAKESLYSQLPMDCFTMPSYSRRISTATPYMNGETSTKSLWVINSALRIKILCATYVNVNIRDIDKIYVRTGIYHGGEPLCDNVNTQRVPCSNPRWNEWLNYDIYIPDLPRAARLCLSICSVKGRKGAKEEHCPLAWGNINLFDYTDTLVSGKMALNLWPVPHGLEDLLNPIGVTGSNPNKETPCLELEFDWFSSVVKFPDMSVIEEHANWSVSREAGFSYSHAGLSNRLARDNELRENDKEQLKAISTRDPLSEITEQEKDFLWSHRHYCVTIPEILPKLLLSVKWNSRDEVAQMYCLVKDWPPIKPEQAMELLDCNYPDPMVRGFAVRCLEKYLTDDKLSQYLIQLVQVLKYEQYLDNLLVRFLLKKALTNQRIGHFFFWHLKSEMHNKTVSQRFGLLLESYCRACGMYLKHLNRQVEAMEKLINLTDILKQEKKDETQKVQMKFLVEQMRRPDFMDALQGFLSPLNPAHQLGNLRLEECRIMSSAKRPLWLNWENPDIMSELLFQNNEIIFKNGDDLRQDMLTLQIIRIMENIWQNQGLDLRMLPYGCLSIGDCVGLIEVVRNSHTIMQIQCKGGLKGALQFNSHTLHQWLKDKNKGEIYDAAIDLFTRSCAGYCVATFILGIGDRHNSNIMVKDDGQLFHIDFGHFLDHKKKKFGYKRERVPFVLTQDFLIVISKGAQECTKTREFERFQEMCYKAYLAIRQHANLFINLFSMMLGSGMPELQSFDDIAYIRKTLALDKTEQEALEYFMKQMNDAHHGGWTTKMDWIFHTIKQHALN
T1 sequence (P27986 whole entry partner): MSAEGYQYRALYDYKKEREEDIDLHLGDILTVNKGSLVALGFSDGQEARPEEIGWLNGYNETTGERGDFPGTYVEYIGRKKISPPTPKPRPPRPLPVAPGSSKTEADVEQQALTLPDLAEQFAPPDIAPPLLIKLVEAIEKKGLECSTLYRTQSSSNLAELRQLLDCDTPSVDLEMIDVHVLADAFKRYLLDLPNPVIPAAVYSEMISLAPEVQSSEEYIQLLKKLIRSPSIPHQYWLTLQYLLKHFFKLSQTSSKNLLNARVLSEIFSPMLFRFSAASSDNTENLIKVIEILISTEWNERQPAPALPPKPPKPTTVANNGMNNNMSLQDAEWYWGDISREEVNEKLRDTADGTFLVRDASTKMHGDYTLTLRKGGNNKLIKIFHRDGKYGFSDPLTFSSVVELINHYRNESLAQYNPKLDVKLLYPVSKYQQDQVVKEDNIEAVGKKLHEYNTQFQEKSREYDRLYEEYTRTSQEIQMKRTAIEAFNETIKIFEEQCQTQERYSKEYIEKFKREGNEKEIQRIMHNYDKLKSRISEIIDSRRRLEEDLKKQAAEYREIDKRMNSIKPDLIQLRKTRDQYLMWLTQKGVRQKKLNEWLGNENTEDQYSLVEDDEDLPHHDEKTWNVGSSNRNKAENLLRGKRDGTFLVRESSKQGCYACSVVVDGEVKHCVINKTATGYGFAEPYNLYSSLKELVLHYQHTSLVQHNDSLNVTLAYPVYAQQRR
T2 sequence (P42338 whole entry): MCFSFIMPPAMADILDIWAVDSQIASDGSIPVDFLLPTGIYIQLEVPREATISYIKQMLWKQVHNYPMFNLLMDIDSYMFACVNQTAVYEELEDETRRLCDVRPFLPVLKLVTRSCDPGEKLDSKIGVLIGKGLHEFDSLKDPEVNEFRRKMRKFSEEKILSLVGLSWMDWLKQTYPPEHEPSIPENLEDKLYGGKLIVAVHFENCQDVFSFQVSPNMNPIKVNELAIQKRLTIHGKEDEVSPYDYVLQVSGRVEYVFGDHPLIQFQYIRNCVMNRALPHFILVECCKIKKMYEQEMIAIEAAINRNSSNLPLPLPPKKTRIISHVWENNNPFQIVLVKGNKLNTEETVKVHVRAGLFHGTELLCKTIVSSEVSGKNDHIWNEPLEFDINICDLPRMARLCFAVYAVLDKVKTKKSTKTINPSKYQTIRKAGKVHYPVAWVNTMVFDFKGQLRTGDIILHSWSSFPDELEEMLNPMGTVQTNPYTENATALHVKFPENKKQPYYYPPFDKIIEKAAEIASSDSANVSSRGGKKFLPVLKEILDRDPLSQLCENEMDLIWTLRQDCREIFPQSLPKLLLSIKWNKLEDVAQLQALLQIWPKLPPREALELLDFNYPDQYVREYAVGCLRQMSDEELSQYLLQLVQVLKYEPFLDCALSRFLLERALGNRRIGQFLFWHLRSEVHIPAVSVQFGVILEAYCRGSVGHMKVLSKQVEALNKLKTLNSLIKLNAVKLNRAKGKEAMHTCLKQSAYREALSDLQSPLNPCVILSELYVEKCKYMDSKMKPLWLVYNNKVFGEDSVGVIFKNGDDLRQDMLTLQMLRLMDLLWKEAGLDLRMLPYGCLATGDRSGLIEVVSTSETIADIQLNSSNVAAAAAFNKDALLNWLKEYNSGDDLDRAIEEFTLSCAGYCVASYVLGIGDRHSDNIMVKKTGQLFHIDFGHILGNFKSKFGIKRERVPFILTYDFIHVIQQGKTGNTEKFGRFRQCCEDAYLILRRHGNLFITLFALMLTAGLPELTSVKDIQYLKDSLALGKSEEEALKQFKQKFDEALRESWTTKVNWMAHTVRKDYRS
T2 sequence (P27986 whole entry partner): as the sequence (P27986 whole entry partner) above
T3 sequence (O00329 whole entry): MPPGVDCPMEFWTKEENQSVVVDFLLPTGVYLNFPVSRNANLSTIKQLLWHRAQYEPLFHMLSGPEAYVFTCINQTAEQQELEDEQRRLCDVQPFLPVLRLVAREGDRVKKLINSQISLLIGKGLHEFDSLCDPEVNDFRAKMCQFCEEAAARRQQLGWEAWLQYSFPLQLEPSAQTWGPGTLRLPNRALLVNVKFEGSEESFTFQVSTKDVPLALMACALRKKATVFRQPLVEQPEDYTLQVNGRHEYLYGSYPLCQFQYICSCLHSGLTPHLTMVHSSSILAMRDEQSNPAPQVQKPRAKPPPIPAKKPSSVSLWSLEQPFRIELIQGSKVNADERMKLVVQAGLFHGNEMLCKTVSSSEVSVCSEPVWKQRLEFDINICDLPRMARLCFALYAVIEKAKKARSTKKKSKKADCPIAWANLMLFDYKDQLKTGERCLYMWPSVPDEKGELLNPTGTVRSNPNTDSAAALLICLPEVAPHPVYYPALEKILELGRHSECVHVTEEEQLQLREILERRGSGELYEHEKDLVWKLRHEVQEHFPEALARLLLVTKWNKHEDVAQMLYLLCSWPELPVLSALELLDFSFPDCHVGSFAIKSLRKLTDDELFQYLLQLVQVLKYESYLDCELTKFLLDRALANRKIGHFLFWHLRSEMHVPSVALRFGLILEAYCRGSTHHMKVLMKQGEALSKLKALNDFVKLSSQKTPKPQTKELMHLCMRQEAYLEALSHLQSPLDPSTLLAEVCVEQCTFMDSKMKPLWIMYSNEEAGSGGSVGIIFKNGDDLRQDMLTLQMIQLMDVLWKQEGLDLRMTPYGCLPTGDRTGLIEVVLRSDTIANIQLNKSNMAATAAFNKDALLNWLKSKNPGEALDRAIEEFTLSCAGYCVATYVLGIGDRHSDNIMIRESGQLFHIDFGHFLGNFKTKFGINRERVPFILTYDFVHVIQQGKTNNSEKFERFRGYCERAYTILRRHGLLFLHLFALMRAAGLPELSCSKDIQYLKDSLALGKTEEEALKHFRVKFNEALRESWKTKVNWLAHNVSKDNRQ
T3 sequence (P27986 whole entry partner): as the sequence (P27986 whole entry partner) above
T4 sequence (P48736 whole entry): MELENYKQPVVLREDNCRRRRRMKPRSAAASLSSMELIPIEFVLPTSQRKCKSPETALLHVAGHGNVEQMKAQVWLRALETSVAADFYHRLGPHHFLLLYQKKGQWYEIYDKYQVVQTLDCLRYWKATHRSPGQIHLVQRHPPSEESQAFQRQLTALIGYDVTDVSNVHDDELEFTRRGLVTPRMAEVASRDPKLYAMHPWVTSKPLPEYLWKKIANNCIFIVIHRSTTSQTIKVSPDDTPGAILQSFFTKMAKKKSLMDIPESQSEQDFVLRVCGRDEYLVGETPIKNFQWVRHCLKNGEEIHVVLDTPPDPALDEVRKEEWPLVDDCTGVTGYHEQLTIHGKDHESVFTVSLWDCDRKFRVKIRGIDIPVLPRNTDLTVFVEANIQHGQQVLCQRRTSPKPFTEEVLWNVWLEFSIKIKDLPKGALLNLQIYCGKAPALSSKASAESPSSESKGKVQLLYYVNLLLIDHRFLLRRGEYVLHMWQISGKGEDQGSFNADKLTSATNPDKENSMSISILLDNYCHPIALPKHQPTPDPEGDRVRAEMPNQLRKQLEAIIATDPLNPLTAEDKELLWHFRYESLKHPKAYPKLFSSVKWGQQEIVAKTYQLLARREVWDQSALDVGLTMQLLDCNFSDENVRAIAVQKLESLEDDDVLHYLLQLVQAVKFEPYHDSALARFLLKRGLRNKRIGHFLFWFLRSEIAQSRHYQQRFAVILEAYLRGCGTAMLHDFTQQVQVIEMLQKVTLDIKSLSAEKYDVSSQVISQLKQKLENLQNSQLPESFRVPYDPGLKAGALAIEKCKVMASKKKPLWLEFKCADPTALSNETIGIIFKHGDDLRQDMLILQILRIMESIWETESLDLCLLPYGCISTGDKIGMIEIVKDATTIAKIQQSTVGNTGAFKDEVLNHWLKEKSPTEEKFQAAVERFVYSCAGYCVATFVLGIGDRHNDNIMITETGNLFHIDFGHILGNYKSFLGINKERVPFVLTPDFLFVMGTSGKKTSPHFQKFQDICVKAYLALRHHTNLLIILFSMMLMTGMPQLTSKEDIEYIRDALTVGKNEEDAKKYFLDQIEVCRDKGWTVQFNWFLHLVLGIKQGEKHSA

Structure (SMILES) | IC50 [2] [nM] | IC50 [3] [nM] | IC50 [4] [nM] | IC50 [5] [nM] | Ki [7] [nM] | Ki [8] [nM] | Ki [9] [nM] | Ki [10] [µM] | also measured
c1cc(-c2nc(N3CCOCC3)c3oc4ncc(CN5CCCCC5)cc4c3n2)c2cc[nH]c2c1 |  |  |  |  |  |  |  |  | AUClast [1, 12]: 1245 ng·mL·h; clearance [1, 12]: 66.1 mL/min/kg; bioavailability ([1]; plasma, PO 10 mg/kg vs IV 5 mg/kg, male CD1 mouse): 27.8%
O=S1(=O)CCCN(Cc2cnc3oc4c(N5CCOCC5)nc(-c5cccc6[nH]ccc56)nc4c3c2)CC1 [Example AA, 4-{[4-(1H-indol-4-yl)-6-(morpholin-4-yl)-8-oxa-3,5,10-triazatricyclo[7.4.0.0^2,^7]trideca-1(13),2(7),3,5,9,11-hexaen-12-yl]methyl}-1λ^6,4-thiazepane-1,1-dione] | ≤ 500 | ≤ 500 | ≤ 500 | 500 to 1000 |  |  |  |  | 
O=S1(=O)CC2(CN(Cc3cnc4oc5c(N6CCOCC6)nc(-c6cccc7[nH]ccc67)nc5c4c3)C2)C1 [Example AB, 6-{[4-(1H-Indol-4-yl)-6-(morpholin-4-yl)-8-oxa-3,5,10-triazatricyclo[7.4.0.0^2^,7]trideca-1(13),2(7),3,5,9,11-hexaen-12-yl]methyl}-2λ^6-thia-6-azaspiro[3.3]heptane-2,2-dione] | ≤ 500 | ≤ 500 | ≤ 500 | 500 to 1000 |  |  |  |  | 
c1cc(-c2nc(N3CCOCC3)c3oc4ncc(CN5CCSC5)cc4c3n2)c2cc[nH]c2c1 [Example AC, 4-(1H-Indol-4-yl)-6-(morpholin-4-yl)-12-[(1,3-thiazolidin-3-yl)methyl]-8-oxa-3,5,10-triazatricyclo[7.4.0.0^2^,7]trideca-1(13),2(7),3,5,9,11-hexaene] | ≤ 500 | ≤ 500 | ≤ 500 | ≤ 500 |  |  |  |  | 
CS(=O)(=O)CCNCc1cnc2oc3c(N4CCOCC4)nc(-c4cccc5[nH]ccc45)nc3c2c1 [Example AD, {[4-(1H-Indol-4-yl)-6-(morpholin-4-yl)-8-oxa-3,5,10-triazatricyclo[7.4.0.0^2^,7]trideca-1(13),2(7),3,5,9,11-hexaen-12-yl]methyl}(2-methanesulfonylethyl)amine] | ≤ 500 | ≤ 500 | ≤ 500 | ≤ 500 |  |  |  |  | 
CCS(=O)(=O)CCN(C)Cc1cnc2oc3c(N4CCOCC4)nc(-c4cccc5[nH]ccc45)nc3c2c1 [Example AE] | ≤ 500 | ≤ 500 | ≤ 500 | ≤ 500 |  |  |  |  | 
c1cc(-c2nc(N3CCOCC3)c3oc4ncc(CN5CCSCC5)cc4c3n2)c2cc[nH]c2c1 [Example AF, 4-(1H-indol-4-yl)-6-(morpholin-4-yl)-12-[(thiomorpholin-4-yl)methyl]-8-oxa-3,5,10-triazatricyclo[7.4.0.0^2^,7]trideca-1(13),2(7),3,5,9,11-hexaene] | ≤ 500 | ≤ 500 | ≤ 500 | 500 to 1000 |  |  |  |  | 
[O-][S+]1CCN(Cc2cnc3oc4c(N5CCOCC5)nc(-c5cccc6[nH]ccc56)nc4c3c2)CC1 [Example B, 4-{[4-(1H-Indol-4-yl)-6-(morpholin-4-yl)-8-oxa-3,5,10-triazatricyclo[7.4.0.0^2,7]trideca-1(13),2(7),3,5,9,11-hexaen-12-yl]methyl}-1λ^4-thiomorpholin-1-one] |  |  |  |  | 500 to 1000 | ≤ 500 | ≤ 500 | 1 to 10 | AUC(0-inf) [6, 13]: 2940 ng·h/mL; AUClast [6, 13]: 2802.91 ng·mL·h; Cmax [6, 13]: 5320 ng/mL; clearance [6, 13]: 17 mL/min/kg; half-life [6, 13]: 206 min; Vd [6, 14]: 1.44 L/kg; AUC(0-inf) [6, 15]: 7700 ng·h/mL; AUC(0-t) [6, 15]: 7690 ng·h/mL; Cmax [6, 15]: 3830 ng/mL; Tmax [6, 15]: 30 min; bioavailability ([6]; plasma, PO 10 mg/kg vs IV 3 mg/kg, male Balb/c mouse): 82%
c1cc(-c2nc(N3CCOCC3)c3oc4ncc(CN5CCOCC5)cc4c3n2)c2cc[nH]c2c1 [compound K in WO 2011/021038] |  |  |  |  |  |  |  |  | AUC(0-inf) [11, 13]: 2690 ng·h/mL; AUClast [11, 13]: 2654.15 ng·mL·h; Cmax [11, 13]: 2980 ng/mL; clearance [11, 13]: 18.6 mL/min/kg; half-life [11, 13]: 79.8 min; Vd [11, 14]: 1.81 L/kg; F [11]: 55%; F ([11]; listed as Example K from W02011/021038 (comparative)): 50%; AUC(0-inf) [11, 15]: 5140 ng·h/mL; AUC(0-t) [11, 15]: 4890 ng·h/mL; Cmax [11, 15]: 1720 ng/mL; Tmax [11, 15]: 15 min

Second part, led by results:

IC50 [2] [nM] | IC50 [3] [nM] | IC50 [4] [nM] | IC50 [5] [nM] | Ki [7] [nM] | Ki [8] [nM] | Ki [9] [nM] | Ki [10] [µM] | Structure (SMILES) | also measured
 |  |  |  | > 10000 | > 10000 | > 10000 | > 10 | N#Cc1cc(-c2nc(N3CCOCC3)c3oc4ncc(CN5CC[S+]([O-])CC5)cc4c3n2)c2cc[nH]c2c1 [Example R, 4-[6-(morpholin-4-yl)-12-[(1-oxo-1λ^4-thiomorpholin-4-yl)methyl]-8-oxa-3,5,10-triazatricyclo[7.4.0.0^2,^7]trideca-1(13),2(7),3,5,9,11-hexaen-4-yl]-1H-indole-6-carbonitrile] | 
 |  |  |  | 1000 to 10000 | ≤ 500 | ≤ 500 | > 10 | [O-][S+]1CCN(Cc2cnc3oc4c(N5CCOCC5)nc(-c5c(Cl)ccc6[nH]ccc56)nc4c3c2)CC1 [Example T, 4-{[4-(5-Chloro-1H-indol-4-yl)-6-(morpholin-4-yl)-8-oxa-3,5,10-triazatricyclo[7.4.0.0^2,7]trideca-1(9),2,4,6,10,12-hexaen-12-yl]methyl}-1λ^4-thiomorpholin-1-one] | 
 |  |  |  | > 10000 | 1000 to 10000 | ≤ 500 | > 10 | [O-][S+]1CCN(Cc2cnc3oc4c(N5CCOCC5)nc(-c5c(Cl)ccc6c5CCN6)nc4c3c2)CC1 [Example U, 4-{[4-(5-Chloro-2,3-dihydro-1H-indol-4-yl)-6-(morpholin-4-yl)-8-oxa-3,5,10-triazatricyclo[7.4.0.0^2,7]trideca-1(9),2,4,6,10,12-hexaen-12-yl]methyl}-1λ^4-thiomorpholin-1-one] | 
 |  |  |  | > 10000 | 1000 to 10000 | ≤ 500 | > 10 | Cc1ccc2c(c1-c1nc(N3CCOCC3)c3oc4ncc(CN5CC[S+]([O-])CC5)cc4c3n1)CCN2 [Example V, 4-{[4-(5-Methyl-2,3-dihydro-1H-indol-4-yl)-6-(morpholin-4-yl)-8-oxa-3,5,10-triazatricyclo[7.4.0.0^2,7]trideca-1(9),2,4,6,10,12-hexaen-12-yl]methyl}-1λ^4-thiomorpholin-1-one] | 
 |  |  |  | ≤ 500 | ≤ 500 | ≤ 500 | > 10 | N#Cc1ccc2[nH]ccc2c1-c1nc(N2CCOCC2)c2oc3ncc(CN4CC[S+]([O-])CC4)cc3c2n1 [Example W, 4-[6-(morpholin-4-yl)-12-[(1-oxo-1λ^4-thiomorpholin-4-yl)methyl]-8-oxa-3,5,10-triazatricyclo[7.4.0.0^2,^7]trideca-1(9),2,4,6,10,12-hexaen-4-yl]-1H-indole-5-carbonitrile] | 
 |  |  |  | > 10000 | > 10000 | > 10000 | > 10 | O=C(O)c1ccc2[nH]ccc2c1-c1nc(N2CCOCC2)c2oc3ncc(CN4CC[S+]([O-])CC4)cc3c2n1 [Example X, 4-[6-(morpholin-4-yl)-12-[(1-oxo-1λ^4-thiomorpholin-4-yl)methyl]-8-oxa-3,5,10-triazatricyclo[7.4.0.0^2,^7]trideca-1(13),2(7),3,5,9,11-hexaen-4-yl]-1H-indole-5-carboxylic acid] | 
 |  |  |  | 500 to 1000 | ≤ 500 | ≤ 500 | 1 to 10 | CC(C)Oc1ccc2[nH]ccc2c1-c1nc(N2CCOCC2)c2oc3ncc(CN4CC[S+]([O-])CC4)cc3c2n1 [Example Y, 4-{[6-(Morpholin-4-yl)-4-[5-(propan-2-yloxy)-1H-indol-4-yl]-8-oxa-3,5,10-triazatricyclo[7.4.0.0^2^,7]trideca-1(9),2,4,6,10,12-hexaen-12-yl]methyl}-1λ^4-thiomorpholin-1-one] | 
 |  |  |  | ≤ 500 | ≤ 500 | ≤ 500 | 0.5 to 1 | [O-][S+]1CCN(Cc2cnc3oc4c(N5CCOCC5)nc(-c5c(OC(F)(F)F)ccc6[nH]ccc56)nc4c3c2)CC1 [Example Z, 4-{[6-(Morpholin-4-yl)-4-[5-(trifluoromethoxy)-1H-indol-4-yl]-8-oxa-3,5,10-triazatricyclo[7.4.0.0^2^,7]trideca-1(9),2,4,6,10,12-hexaen-12-yl]methyl}-1λ^4-thiomorpholin-1-one] | 
